Test results: patent US7674789B2, “Compounds” (Glaxo Group Limited, priority 2005, dated 2010)
Entries after “also recorded” stand apart in the source; their conditions may differ. Counter-ions that a name gives are not always drawn.

System: influx of neutrophils to the lung in LPS-challenged rats
Test: Rat LPS neutrophilia model
Format: in vivo
Details: intratracheal compound 15 min-24 hours before LPS aerosol (100 ug/ml, 15 min), lavage 4 hours later, in at least one of the range of conditions tested
Protocol: Rat LPS Neutrophilia Model
The effect of compounds on the influx of neutrophils to the lung in LPS-challenged rats is evaluated as follows. The test compound is suspended in one of the following solutions: 0.5% tween 80/PBS, 0.5% tween 80/saline, 10% EtOH/saline (with pH adjusted to 2.0, or 8.0 with HCl, or unadjusted), Saline @ pH 2.0, 6.5 or 8.0, 0.5% Tragacanth, 1% DMSO/20% Encapsin/Saline, or acidified 5% Tragacanth. The suspension process may be aided by the use of a glass homogenizer. For intratracheal administration, the animals are anesthetized with inhaled isoflurane and placed in a supine position, the trachea is intubated with a steel gavage needle (1.5 inch, 22 gauge, small ball) or a Penn-Century Microsprayer Aerosolizer (model IA-1B) and 200 ul of dosing solution is delivered. The animals are visually monitored during the recovery process, which typically occurs within two minutes.
Rats treated with compound or vehicle (15 min-24 hours pretreatment) are exposed to an LPS aerosol (100 ug/ml) for 15 min. Four hours later the rats are euthanized with pentobarbital (100 mg/kg, i.p.) and the airways are lavaged with 5 washes of 5 ml of phosphate buffered saline. The harvested cells are stained (Diffquick) and counted to determine total and differential cell data. In a typical study, macrophages represent 40-70% of the total cells, and polymorphonuclear cells 30-60% of the total cells. Inhibition of neutrophil levels relative to no compound controls is calculated based on the differential counts.
The assay has varying conditions, such as concentration, pretreat time, form of the compound (crystalline, amorphous, salts, micronised), and a wet or dry application of the compound. The data is obtained as % inhibition using a particular concentration and pretreat time.

| Structure (SMILES) | inhibition of neutrophilia (neutrophil influx to the lung) |
| --- | --- |
| Cc1ccc(C(=O)NC(C)C)cc1-c1nc(N(C)CCN(C)C)nc2c1CNC(=O)N2c1c(F)cccc1F [Example 36, 3-{8-(2,6-difluorophenyl)-2-[[2-(dimethylamino)ethyl](methyl)amino]-7-oxo-5,6,7,8-tetrahydropyrimido[4,5-d]pyrimidin-4-yl}-4-methyl-N-(1-methylethyl)benzamide] | statistically significant inhibition of neutrophilia |
| Cc1ccc(C(=O)Nc2ccc(C)c(-c3nc(N4CCC(N)CC4)nc4c3CNC(=O)N4c3c(F)cccc3F)c2)cc1F [Example 24, N-{3-[2-(4-amino-1-piperidinyl)-8-(2,6-difluorophenyl)-7-oxo-5,6,7,8-tetrahydropyrimido[4,5-d]pyrimidin-4-yl]-4-methylphenyl}-3-fluoro-4-methylbenzamide] | statistically nonsignificant inhibition of neutrophilia |
| CCN(CC)CCCNc1nc(-c2cc(C(=O)Nc3nccs3)ccc2C)c2c(n1)N(c1c(F)cccc1F)C(=O)NC2 [Example 120, 3-[2-{[3-(diethylamino)propyl]amino}-8-(2,6-difluorophenyl)-7-oxo-5,6,7,8-tetrahydropyrimido[4,5-d]pyrimidin-4-yl]-4-methyl-N-1,3-thiazol-2-ylbenzamide] | statistically significant inhibition of neutrophilia |
| Cc1ccc(C(=O)Nc2ccc(F)cc2)cc1-c1nc(N(C)CCCN(C)C)nc2c1CNC(=O)N2c1c(F)cccc1F [Example 9, 3-{8-(2,6-difluorophenyl)-2-[[3-(dimethylamino)-propyl](methyl)amino]-7-oxo-5,6,7,8-tetrahydropyrimido[4,5-d]pyrimidin-4-yl}-N-(4-fluorophenyl)-4-methylbenzamide] | statistically nonsignificant inhibition of neutrophilia |
| Cc1ccc(C(=O)Nc2ccc(F)c(F)c2)cc1-c1nc(NCCN(C)C)nc2c1CNC(=O)N2c1c(F)cccc1F [Example 138, N-(3,4-difluorophenyl)-3-(8-(2,6-difluorophenyl)-2-{[2-(dimethylamino)-ethyl]amino}-7-oxo-5,6,7,8-tetrahydropyrimido[4,5-d]pyrimidin-4-yl)-4-methylbenzamide] | statistically significant inhibition of neutrophilia |
| CCCNC(=O)c1ccc(C)c(-c2nc(N(C)CCCN(C)C)nc3c2CNC(=O)N3c2c(F)cccc2F)c1 [Example 53, 3-{8-(2,6-difluorophenyl)-2-[[3-(dimethylamino)propyl](methyl)amino]-7-oxo-5,6,7,8-tetrahydropyrimido[4,5-d]pyrimidin-4-yl}-4-methyl-N-propylbenzamide] | statistically nonsignificant inhibition of neutrophilia |
| Cc1c(F)cc(C(=O)Nc2ccccc2)cc1-c1nc(NCCN(C)C)nc2c1CNC(=O)N2c1c(F)cccc1F [Example 112, 3-(8-(2,6-difluorophenyl)-2-{[2-(dimethylamino)ethyl]amino}-7-oxo-5,6,7,8-tetrahydropyrimido[4,5-d]pyrimidin-4-yl)-5-fluoro-4-methyl-N-phenylbenzamide] | statistically significant inhibition of neutrophilia |
| CSc1nc(-c2cc(NC(=O)c3ccsc3)ccc2C)c2c(n1)N(c1c(F)cccc1F)C(=O)NC2 [7(c), N-{3-[8-(2,6-Difluorophenyl)-2-(methylthio)-7-oxo-5,6,7,8-tetrahydropyrimido[4,5-d]pyrimidin-4-yl]-4-methylphenyl}-3-thiophenecarboxamide] | inactive |
| Cc1ccc(C(=O)Nc2ccc(C)c(-c3nc(NC4CC(C)(C)NC(C)(C)C4)nc4c3CNC(=O)N4c3c(F)cccc3F)c2)cc1F [23(e), N-(3-{8-(2,6-difluorophenyl)-7-oxo-2-[(2,2,6,6-tetramethyl-4-piperidinyl)amino]-5,6,7,8-tetrahydropyrimido[4,5-d]pyrimidin-4-yl}-4-methylphenyl)-3-fluoro-4-methylbenzamide] | statistically nonsignificant inhibition of neutrophilia |
| CCc1ccc(C(=O)Nc2nccs2)cc1-c1nc(NCCN(C)C)nc2c1CNC(=O)N2c1c(F)cccc1F [Example 144, 3-(8-(2,6-difluorophenyl)-2-{[2-(dimethylamino)ethyl]amino}-7-oxo-5,6,7,8-tetrahydropyrimido[4,5-d]pyrimidin-4-yl)-4-ethyl-N-1,3-thiazol-2-ylbenzamide trifluoroacetate] | statistically significant inhibition of neutrophilia |
| Cc1ccc(C(=O)Nc2ccc(F)cc2)cc1-c1nc(NCCCN(C)C)nc2c1CNC(=O)N2c1c(F)cccc1F [Example 42, 3-(8-(2,6-difluorophenyl)-2-{[3-(dimethylamino)propyl]amino}-7-oxo-5,6,7,8-tetrahydropyrimido[4,5-d]pyrimidin-4-yl)-N-(4-fluorophenyl)-4-methylbenzamide] | statistically significant inhibition of neutrophilia |
| CN(C)CCNc1nc(-c2cccc(C(=O)Nc3ccc(F)cc3)c2)c2c(n1)N(c1c(F)cccc1F)C(=O)NC2 [Example 93, 3-(8-(2,6-difluorophenyl)-2-{[2-(dimethylamino)ethyl]amino}-7-oxo-5,6,7,8-tetrahydropyrimido[4,5-d]pyrimidin-4-yl)-N-(4-fluorophenyl)benzamide] | statistically nonsignificant inhibition of neutrophilia |
| Cc1ccc(NC(=O)c2ccsc2)cc1-c1nc(N2CCC(N)CC2)nc2c1CNC(=O)N2c1c(F)cccc1F [Example 11, N-{3-[2-(4-amino-1-piperidinyl)-8-(2,6-difluorophenyl)-7-oxo-5,6,7,8-tetrahydropyrimido[4,5-d]pyrimidin-4-yl]-4-methylphenyl}-3-thiophenecarboxamide] | statistically significant inhibition of neutrophilia |
| CCCNC(=O)c1ccc(C)c(-c2nc(NCCCN(CC)CC)nc3c2CNC(=O)N3c2c(F)cccc2F)c1 [29(c), 3-[2-{[3-(diethylamino)propyl]amino}-8-(2,6-difluorophenyl)-7-oxo-5,6,7,8-tetrahydropyrimido[4,5-d]pyrimidin-4-yl]-4-methyl-N-propylbenzamide] | statistically significant inhibition of neutrophilia |
| Cc1ccc(C(=O)Nc2nccs2)cc1-c1nc(NC[C@H](C)O)nc2c1CNC(=O)N2c1c(F)cccc1F [Example 134, 3-(8-(2,6-difluorophenyl)-2-{[(2S)-2-hydroxypropyl]amino}-7-oxo-5,6,7,8-tetrahydropyrimido[4,5-d]pyrimidin-4-yl)-4-methyl-N-1,3-thiazol-2-ylbenzamide] | statistically nonsignificant inhibition of neutrophilia |
| CCN(CC)CCCNc1nc(-c2cc(C(=O)NC)ccc2C)c2c(n1)N(c1c(F)cccc1F)C(=O)NC2 [Example 172, 3-[2-{[3-(diethylamino)propyl]amino}-8-(2,6-difluorophenyl)-7-oxo-5,6,7,8-tetrahydropyrimido[4,5-d]pyrimidin-4-yl]-N,4-dimethylbenzamide] | statistically nonsignificant inhibition of neutrophilia |
| Cc1ccc(C(=O)Nc2ccccc2)cc1-c1nc(NCCN(C)C)nc2c1CNC(=O)N2c1c(F)cccc1F [Example 137, 3-(8-(2,6-difluorophenyl)-2-{[2-(dimethylamino)ethyl]amino}-7-oxo-5,6,7,8-tetrahydropyrimido[4,5-d]pyrimidin-4-yl)-4-methyl-N-phenylbenzamide] | statistically significant inhibition of neutrophilia |
| Cc1ccc(C(=O)NC(C)C)cc1-c1nc(N(C)CCCN(C)C)nc2c1CNC(=O)N2c1c(F)cccc1F [34(d), 3-{8-(2,6-difluorophenyl)-2-[[3-(dimethylamino)propyl](methyl)amino]-7-oxo-5,6,7,8-tetrahydropyrimido[4,5-d]pyrimidin-4-yl}-4-methyl-N-(1-methylethyl)benzamide] | statistically nonsignificant inhibition of neutrophilia |
| Cc1ccc(C(=O)NC(C)C)cc1-c1nc(N2CCC(N3CCCC3)CC2)nc2c1CNC(=O)N2c1c(F)cccc1F [Example 60, 3-{8-(2,6-difluorophenyl)-7-oxo-2-[4-(1-pyrrolidinyl)-1-piperidinyl]-5,6,7,8-tetrahydropyrimido[4,5-d]pyrimidin-4-yl}-4-methyl-N-(1-methylethyl)benzamide] | statistically nonsignificant inhibition of neutrophilia; also recorded: inactive |
| Cc1ccc(C(=O)NC(C)C)cc1-c1nc(NC2CCN(Cc3ccccc3)CC2)nc2c1CNC(=O)N2c1c(F)cccc1F [Example 200, 3-(8-(2,6-difluorophenyl)-7-oxo-2-{[1-(phenylmethyl)-4-piperidinyl]amino}-5,6,7,8-tetrahydropyrimido[4,5-d]pyrimidin-4-yl)-4-methyl-N-(1-methylethyl)benzamide] | statistically significant inhibition of neutrophilia |
